Results on four molecules are retold here after patent US11911413B2, “Methods and compositions for the treatment of pain and/or inflammation” (Proteobioactives Pty Limited, priority 2018, dated 2024).

The subject of data set [1] is leukocytes isolated from the blood of these patients. The conditions noted are these: seven days after NaPPS administration, cited from earlier work.
The subject of data set [2] is patients with symptomatic knee OA. The conditions noted are these: NaPPS 3 mg/kg, 4 weekly IM injections, cited from earlier work.
For data set [3], the system named is postmenopausal women with mild to moderate osteoarthritis. As to conditions: cited from earlier work.
The subject of data set [4] is Japanese patients with mild knee OA. As to conditions: weekly subcutaneous 2 mg/kg NaPPS over 6 weeks; assessed to 52 weeks; cited from earlier work.
Data set [5] concerns elderly subjects with high blood viscosity and filterability. As to conditions: 15 elderly subjects; IM 50 mg NaPPS twice daily for a week; cited from earlier work.
For data set [6] the following is noted: single oral dose [3H]PPS with 300 or 450 mg un-labelled PPS; healthy female subjects; cited from earlier work.
Data set [7] deals with patients with bone marrow lesions (oedema) diagnosed by MRI. The conditions noted are these: PPS administered systemically (IM or SC); cited from earlier work.
For data set [8] the following is noted: 223 cases in the United States, FDA memorandum 2005; cited from earlier work.
The subject of data set [9] is patients with hand OA. In words: Double-blind comparator clinical trial Pentabrex vs celecoxib, hand OA (Example 7). In kind it is in vivo, human. An excerpt:
(§1) A prospective, dose ranging, double-blind, comparator clinical trial to evaluate the tolerability and efficacy of Pentabrex™, (Proteobioactives Pty Ltd, Balgowlah, NSW, Australia) compared to celecoxib, for the relief of symptoms in elderly patients with OA of the hand and knee conducted at the Subiaco Rheumatology Clinic, Subiaco, Perth, WA, Australia.
(§2) Thirty three male and female patients with symptomatic hand or knee OA were obtained from referrals sent by general medical practitioners located in Perth (Western Australia) suburbs. […] To be included in the clinical trial, patients had to be 50 years of age or older and have an OA grade of 3-4 (Kellgren J H, Lawrence J S. Radiological assessment of osteoarthrosis. Annals Rheumatic Dis.1957; 16:494-502) that had been symptomatic for at least 6 months prior to their inclusion. If a patient had pain in both knees or both hands, the more painful knee or hand was the joint used for assessment. If patients had both hand and knee OA each most painful joint was assessed separately.
(§3) Patients with rheumatoid arthritis or any other rheumatic condition that required the continuous administration of a second line rheumatic agent such as methotrexate, steroid or cytokine antagonist, had current bleeding diathesis or were receiving treatment with blood thinners (such as warfarin), or had any significant medical conditions involving the liver, kidney, or their motor or nervous systems were excluded from the trial.
(§4) Although patients were requested not to consume additional analgesics or NSAIDs over the duration of the study, if they found this to be too difficult because of the unacceptable level of pain they experienced, they were required to document the drugs and quantities they used for relief of pain in a six week daily diary that supplied with the clinical trial test package manufactured by the compounding chemist (Kingsway, Brookvale NSW 2100, Australia). Failure to complete the daily dairies over the duration of the 6 week trial and return the used blister pack to the examining clinician at the final consultation would be taken as to non-compliance with the trial protocol. The diary requirement was included as part of patient assessment for the duration of the trial because of the known non-compliance of patients taking oral medications over extended periods of time (van Berge Henegouwen MTH, van Driel H F, Kasteleijn-Nolst DGA. A patient diary as a tool to improve medicine compliance. Pharm World Sci. 1999; 21: 21-24, Farmer K C, Methods for measuring and monitoring medication regimen adherence in clinical trials and clinical practice. Clinical […]
At the commencement of the trial details of the patient's age, height, weight, location of the most painful joints, duration of symptoms and grade of OA were recorded. […]

For data set [10], the system named is patients with knee OA. Kind of data set: Double-blind comparator clinical trial Pentabrex vs celecoxib, knee OA (Example 7). In kind it is in vivo, human.
From the text: as §1, §2, §3, §4
For patients with OA of the knee joints their VAS pain scores were determined for their pain at rest, pain on walking and early morning stiffness. […]

Data set [11] deals with patients with OA of the hand and knee. In words: Double-blind comparator clinical trial, hand and knee OA combined (Example 7). In kind it is in vivo, human. The conditions noted are these: daily for 6 weeks.
From the text: as §1, §2, §4
The same clinical parameters that were determined for all patients at baseline were assessed at the final examination six weeks later. The patient's diaries and blister packs returned were also examined and the number of supplementary analgesics they consumed was recorded. Any adverse side effects noted over the duration of the trial were also recorded. […]

Where [12] appears, read: Pentabrex 350 mg or celecoxib 175 mg daily for 6 weeks.
The mark [13] stands for this setting: Pentabrex n = 5, celecoxib n = 4, daily for 6 weeks.
Where [14] appears, read: Pentabrex n = 5, celecoxib n = 9, daily for 6 weeks.

For the molecule “[2R,3R,4S,5R)-2-hydroxy-5-[(2S,3R,4S,5R)-5-hydroxy-3,4-disulfo-oxyoxan-2-yl]oxy-3-sulfooxyoxan-4-yl] hydrogen sulfate [NaPPS]”, in data set [1] (compared to leukocytes collected before), the “concentrations of arachidonic acid-derived lipoxygenase (LOX) metabolites released from the cells” value is “significantly decreased”. The “prostaglandin metabolites generated by the COX pathways” value in data set [1] (non-stimulated leukocytes) is “increased”. The “pain on walking and other physical activities, such as stair climbing” value in data set [2] is reported as “significantly improved”. Moreover, in [2] (maintained for 20 weeks after cessation), the “joint pain at rest relative to placebo controls” value is listed as “significantly improvement”. The “peripheral blood mononuclear cell procoagulant activity (MPA)” value in [3] (3 mg/kg NaPPS IM, 24 hours after administration) was “significantly reduced to within the normal range”. In [3] (3 mg/kg NaPPS IM, between 2 and 4 hours after administration), the “Plasma concentrations of lipoprotein lipase, hepatolipase, and superoxide dismutase” value is on record as “significantly elevated”. Moreover, the “patients reporting significant clinical improvement of their symptoms” value in data set [3] (4 weekly IM injections of 3 mg/kg, for up to 12 weeks after the last injection) was 11. In [4], the “joint swelling, knee flexion, pain while walking and stair climbing” value is “improved significantly”. Further, in data set [5], the “blood viscosity and filterability” value is “significant reduction”. Also, in [6], the “administered dose excreted in the faeces as intact PPS” value is on record as 84% and the “administered dose excreted in urine in a depolymerized form” value was 6%. Further, the “bone marrow lesions (oedema) and accompanying pain” value in data set [7] was “resolved the bone marrow lesions (oedema) and accompanying pain”.

For the molecule `CS(=O)(=O)c1ccc(C2=C(c3ccccc3)C(=O)OC2)cc1` [rofecoxib, 4-(4-methylsulfonylphenyl)-3-phenyl-5H-furan-2-one], the “thrombotic or embolic events associated with the drug” value in [8] was 99 cases.

Regarding `CCc1cccc2c3c([nH]c12)C(CC)(CC(=O)O)OCC3` (stereo not drawn) [etodolac], the “thrombotic or embolic events associated with the drug” value in data set [8] was 22 cases.

Regarding `Cc1ccc(-c2cc(C(F)(F)F)nn2-c2ccc(S(N)(=O)=O)cc2)cc1` [Celecoxib, 4-[5-(4-methylphenyl)-3-(trifluoromethyl)pyrazol-1-yl] benzene sulfonamide], the “thrombotic or embolic events associated with the drug” value in data set [8] is given as 102 cases. Besides, the results for the “Negative response, % of patients” value in [9] (setting [12]), in data set [10] (setting [12]) and in [11] were 75%, 23.33% and 38.46%, respectively. Also, the “Positive response, % of patients” value worked out at 25% in [9] (setting [12]), 77.77% in data set [10] (setting [12]) and 61.54% in [11]. Besides, the entries for the “Negative response, number of patients” value in data set [9] (setting [13]), in [10] (setting [14]) and in data set [11] were 3, 2 and 5, respectively. Further, the “Positive response, number of patients” value in data set [9] (setting [13]) turned out to be 1; in data set [10] (setting [14]) it was 7; in data set [11], 8.
